# Laboratory results taken from patent publication US20030077826A1, “Chimeric molecules containing a module able to target specific cells and a module regulating the apoptogenic function of the permeability transition pore complex (PTPC)” (priority 2001, published 2003).
# Ends that are not written are not given here. Peptide text beside a SMILES is read from it. * marks the point of attachment. Biotin = O=C1N[C@H]2[C@H](CS[C@H]2CCCCC(=O)*)N1
# T1: Purified ANT (Rattus norvegicus, UniProt Q05962)
# T1 sequence (Q05962 1-298): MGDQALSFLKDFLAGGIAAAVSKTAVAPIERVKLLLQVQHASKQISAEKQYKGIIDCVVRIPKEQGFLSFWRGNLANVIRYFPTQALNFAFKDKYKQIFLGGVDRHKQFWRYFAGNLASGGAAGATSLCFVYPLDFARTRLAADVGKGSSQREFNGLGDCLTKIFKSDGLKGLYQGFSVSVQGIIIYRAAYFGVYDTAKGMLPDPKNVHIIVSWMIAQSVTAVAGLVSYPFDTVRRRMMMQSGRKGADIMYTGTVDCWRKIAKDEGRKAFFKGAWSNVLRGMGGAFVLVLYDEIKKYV
# T2: adenine nucleotide translocator (ANT), purified from rat heart mitochondria (rat), Q05962
# T2 chain: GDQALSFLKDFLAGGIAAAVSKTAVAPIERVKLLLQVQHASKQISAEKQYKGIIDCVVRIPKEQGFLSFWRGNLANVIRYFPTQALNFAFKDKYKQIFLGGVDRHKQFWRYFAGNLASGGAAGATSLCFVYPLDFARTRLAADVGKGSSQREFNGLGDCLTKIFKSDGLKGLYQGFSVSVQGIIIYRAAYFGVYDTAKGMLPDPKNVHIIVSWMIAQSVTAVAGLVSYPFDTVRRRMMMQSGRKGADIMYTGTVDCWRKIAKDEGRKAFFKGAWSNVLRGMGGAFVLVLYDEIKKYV
# Experiments:
# [1] = system: permeability transition pore (PTP); assay: Swelling of isolated mitochondria (large amplitude swelling, 90° light scattering); assay type: biochemical, rat; set-up: key to Induction of Mitochondrial swelling (sw): +++ rapid sw; ++ low sw; + very low sw; − no sw t 20 min; conditions: for Induction of Mitochondrial swelling (sw): 5 μM, 20 min, isolated mitochondria
# Description: Mitochondria are purified from rat liver, as described (Costantini et al., 1996), and resuspended in 250 mM sucrose+0.1 mM EGTA+10 mM-tris[hydroxymethyl]methyl-2-Aminoethanesulfonic acid, pH=7.4). For the induction of PT, mitochondria (0.5 mg protein per ml) are resuspended in PT buffer (200 mM sucrose, 10 mM Tris-MOPS (pH 7.4), 5 mM Tris-succinate, 1 mM Tris-phosphate, 2 μM rotenone, and 10 μM EGTA-Tris), and monitored in an F4500 fluorescence spectrometer (Hitachi, Tokyo, Japan) for the 90° light scattering of light ([…]), 1 μM cyclosporin A (CsA; Novartis, Basel, Switzerland), 5 μM CaCl2, and/or 0.5 to 20 μM of pTarg-pTox or pTarg-pSave. For the determination of the ΔΨm, mitochondria (0.5 mg protein per ml) are incubated in a buffer supplemented with 1 μM rhodamine 123 (Molecular Probes, Eugene, Oreg.) and the dequenching of rhodamine fluorescence (excitation 505 nm, emission 525 nm) is measured as described (Shimizu et al, 1998). Supernatants from mitochondria (6800 g for 15 min; then 20 000 g for 1 h; 4° C.) are frozen at −80° C. until determination of apoptogenic activity on isolated nuclei, DEVD-afc cleaving activity, and immunodetection of cytochrome c and AIF. Cytochrome c and AIF are detected by means of a monoclonal antibody (clone 7H8.2C12, Pharmingen) and a polyclonal rabbit anti-serum (Susin et al. 1999) respectively.
# Purified ANT = biological target: T1, Purified ANT; assay: biochemical; assay type: binding
# Description: (§1) Sensor Chips SA (streptavidin coated sensor chips) were used for immobilisation of the different peptides. Tox1 was immobilised at a density of 0.7 ng/mm^2, Tox0 at a density of 3.7 ng/mm^2,. Ctr1Tox0 at a density of 1.4 ng/mm^2, Tox5 at a density of 1 ng/mm^2, Tox6 at a density of 1 ng/mm2, Save1 at a density of 1.3 ng/mm^2, and the control peptide at a density of 0.8 ng/mm^2. Association and dissociation kinetics of ANT and VDAC interactions were followed at a rate of 10 μL/min for 10 minutes (5 minutes association and 5 minutes dissociation). The ligand was regenerated with a 1 minute flux of KSCN 3M. The obtained sensorgrams were analysed by the BlAeval 3.1 software using the method of double references (Myszka D. G. 2000. Kinetic, equilibrium and thermodynamic analysis of macromolecular interactions with BIACORE. Methods Enzymol. 323:325-340). From the sensorgrams with the ligands were first substracted the sensorgrams obtained with the corresponding analyte solvents. A second substraction was performed with the sensorgrams obtained with the control peptide ligand. The control peptide for the Tox and Save peptides was biot-H19C corresponding to the sequence of the β2-adrenergic receptor (Lebesgue D., Wallukat G., Mijares A., Granier C., Argibay J., and Hoebeke J. (1998) An agonist-like monoclonal antibody to the human β 2-adrenergic receptor. Eur.J. Pharmacol. 348:123-133). The control peptide for Tox0 was Ctr1Tox0.
# Purified VDAC = assay: Surface plasmon resonance, immobilised peptides with purified VDAC; assay type: binding; conditions: for specific binding of VDAC: 50 nM VDAC
# Description: as §1
# [2] = biological target: T2, adenine nucleotide translocator (ANT), …; assay: SPR (BIAcore), peptide on streptavidin chip, ANT as analyte at one concentration (50 nM)
# [3] = biological target: T2, adenine nucleotide translocator (ANT), …
molecule,measurement,setting,value
"C=C1[C@@H]2CC[C@H]3[C@]4(C)C[C@H](O[C@@H]5O[C@H](CO)[C@@H](OS(=O)(=O)O)[C@H](OS(=O)(=O)O)[C@H]5OC(=O)CC(C)C)C[C@@H](C(=O)O)[C@H]4CC[C@]3(C2)[C@H]1O [Atractyloside, atractyloside, reference compound]",Mitrochondrial swelling (sw) %,[1]; 600 μM alone,110%
"[Ca+2] [Ca 2 +, reference compound]",Mitrochondrial swelling (sw) %,[1]; 100 μM alone,100%
"C[C@H](NC(=O)[C@H](Cc1ccccc1)NC(=O)[C@H](Cc1ccc(O)cc1)NC(=O)[C@H](CCCNC(=N)N)NC(=O)[C@H](Cc1c[nH]c2ccccc12)NC(=O)[C@H](Cc1ccccc1)NC(=O)[C@H](CCC(N)=O)NC(=O)[C@@H](NC(=O)[C@H](CCCNC(=N)N)NC(=O)[C@H](CCCCN)NC(=O)[C@H](CC(=O)O)NC(=O)[C@H](CCCNC(=N)N)NC(=O)[C@H](CCCNC(=N)N)NC(=O)[C@H](CCCNC(=N)N)NC(=O)[C@H](CCC(N)=O)NC(=O)[C@H](CCCNC(=N)N)NC(=O)[C@H](CCCNC(=N)N)NC(=O)[C@H](CCCCN)NC(=O)[C@H](CCCCN)NC(=O)[C@H](CCCNC(=N)N)NC(=O)CCCC[C@@H]1SC[C@@H]2NC(=O)N[C@@H]21)[C@@H](C)O)C(=O)NCC(=O)N[C@@H](CC(N)=O)C(=O)O [Save1, Biot-RKKRRQRRR-DKRTQFWRYFAGN (hANT2)] (Biotin-RKKRRQRRRDKRTQFWRYFAGN-OH; C-terminus assumed)",Kd,Purified ANT,0.01 nM
same,Mitrochondrial swelling (sw) %,[1]; 5 μM + Atr 600 μM,5%
same,Mitrochondrial swelling (sw) %,[1]; 5 μM alone,2%
same,Mitrochondrial swelling (sw) %,[1]; 20 μM + Atr 600 μM,12%
same,Mitrochondrial swelling (sw) %,[1]; 20 μM alone,12%
same,specific binding of VDAC,Purified VDAC,did not result in any specific binding
CC[C@H](C)[C@H](NC(=O)CNC(=O)[C@@H](NC(=O)[C@H](CCCNC(=N)N)NC(=O)[C@H](CO)NC(=O)[C@H](Cc1c[nH]cn1)NC(=O)[C@H](CCCNC(=N)N)NC(=O)[C@H](CS)NC(=O)CNC(=O)[C@@H](NC(=O)[C@H](CCCNC(=N)N)NC(=O)[C@H](Cc1ccccc1)NC(=O)[C@H](Cc1c[nH]cn1)NC(=O)[C@@H](NC(=O)[C@H](Cc1ccccc1)NC(=O)[C@H](CC(C)C)NC(=O)[C@H](CC(C)C)NC(=O)[C@H](CCC(N)=O)NC(=O)[C@H](CCC(N)=O)NC(=O)[C@H](CC(C)C)NC(=O)[C@@H](NC(=O)[C@H](CCCNC(=N)N)NC(=O)[C@@H](NC(=O)[C@H](CC(C)C)NC(=O)[C@H](C)NC(=O)[C@H](CCC(=O)O)NC(=O)[C@@H](NC(=O)CNC(=O)[C@@H](NC(=O)[C@H](Cc1c[nH]c2ccccc12)NC(=O)[C@@H](NC(=O)[C@H](CC(=O)O)NC(=O)CCCC[C@@H]1SC[C@@H]2NC(=O)N[C@@H]21)[C@@H](C)O)[C@@H](C)O)C(C)C)[C@@H](C)CC)[C@@H](C)CC)[C@@H](C)CC)[C@@H](C)CC)[C@@H](C)CC)C(=O)N[C@H](C(=O)N[C@@H](CCC(N)=O)C(=O)N[C@@H](CCC(N)=O)C(=O)N[C@@H](CCCNC(=N)N)C(=O)N[C@@H](CCCNC(=N)N)C(=O)N[C@H](C(=O)N[C@@H](CCCNC(=N)N)C(=O)N[C@@H](CC(N)=O)C(=O)NCC(=O)N[C@@H](C)C(=O)N[C@@H](CO)C(=O)N[C@@H](CCCCN)C(=O)N[C@@H](CO)C(=O)O)[C@@H](C)O)[C@@H](C)CC [Tox0],Kd,Purified ANT,0.15 nM
"C[C@@H](O)[C@H](NC(=O)[C@H](CCCNC(=N)N)NC(=O)[C@H](CCCCN)NC(=O)[C@H](CC(=O)O)NC(=O)CNC(=O)CNC(=O)[C@H](CS)NC(=O)[C@H](CCCNC(=N)N)NC(=O)CNC(=O)[C@H](CC(N)=O)NC(=O)[C@H](CS)NC(=O)CCCC[C@@H]1SC[C@@H]2NC(=O)N[C@@H]21)C(=O)N[C@@H](CCC(N)=O)C(=O)N[C@@H](Cc1ccccc1)C(=O)N[C@@H](Cc1c[nH]c2ccccc12)C(=O)N[C@@H](CCCNC(=N)N)C(=O)N[C@@H](Cc1ccc(O)cc1)C(=O)N[C@@H](Cc1ccccc1)C(=O)N1CCC[C@H]1C(=O)NCC(=O)N[C@@H](CC(N)=O)C(=O)O [Tox5, Biot-CNGRC-GG-DKRTQFWRYFPGN (hANT2m)] (Biotin-CNGRCGGDKRTQFWRYFPGN-OH; N-terminus and C-terminus assumed)",Induction of Mitochondrial swelling (sw),[1],++
same,specific binding of VDAC,Purified VDAC,did not result in any specific binding
"C[C@H](NC(=O)CCCC[C@@H]1SC[C@@H]2NC(=O)N[C@@H]21)C(=O)N[C@@H](CS)C(=O)N[C@@H](CC(=O)O)C(=O)N[C@@H](CS)C(=O)N[C@@H](CCCNC(=N)N)C(=O)NCC(=O)N[C@@H](CC(=O)O)C(=O)N[C@@H](CS)C(=O)N[C@@H](Cc1ccccc1)C(=O)N[C@@H](CS)C(=O)NCC(=O)NCC(=O)N[C@@H](CC(=O)O)C(=O)N[C@@H](CCCCN)C(=O)N[C@@H](CCCNC(=N)N)C(=O)N[C@H](C(=O)N[C@@H](CCC(N)=O)C(=O)N[C@@H](Cc1ccccc1)C(=O)N[C@@H](Cc1c[nH]c2ccccc12)C(=O)N[C@@H](CCCNC(=N)N)C(=O)N[C@@H](Cc1ccc(O)cc1)C(=O)N[C@@H](Cc1ccccc1)C(=O)N1CCC[C@H]1C(=O)NCC(=O)N[C@@H](CC(N)=O)C(=O)O)[C@@H](C)O [Tox6, Biot-ACDCRGDCFC-GG-DKRTQFWRYFPGN (hANT2m)] (Biotin-ACDCRGDCFCGGDKRTQFWRYFPGN-OH; N-terminus and C-terminus assumed)",Induction of Mitochondrial swelling (sw),[1],++
same,specific binding of VDAC,Purified VDAC,did not result in any specific binding
Biot- CNGRC-GG-HFAIGCRHSAIG [Ctr1 Tox1],Induction of Mitochondrial swelling (sw),[1],−
Biot- CNGRC-GG-HFRIGCRHSRIG [Tox1],binding to purified ANT (in words),Purified ANT; surface plasmon resonance,Binds
same,Induction of Mitochondrial swelling (sw),[1],++
same,association of VDAC with the peptide ligand,Purified VDAC; VDAC concentrations ten times higher than ANT,only extremely low association
Biot-CNGRC-GG-CNGRC [Ctr2 Tox1],Induction of Mitochondrial swelling (sw),[1],−
Biot-GG-HFRIGCRHSRIG [Ctr3 Tox1],Induction of Mitochondrial swelling (sw),[1],+
Biot-RKKRRQRRR-LASGGAAGATSLCFVYPL (hANT[117-134]) [Save2],Mitrochondrial swelling (sw) %,[1]; 10 μM + Atr 600 μM,16%
same,Mitrochondrial swelling (sw) %,[1]; 10 μM alone,2%
same,Mitrochondrial swelling (sw) %,[1]; 20 μM + Atr 600 μM,16%
same,Mitrochondrial swelling (sw) %,[1]; 20 μM alone,16%
CNGRCGGDKRTQFWRYFPGN (modifications not checked) [Tox5 (Biot-CNGRC-GG-… (hANT2m))],relative affinity,[2],0.1 nM
ACDCRGDCFCGGDKRTQFWRYFPGN (modifications not checked) [Tox6 (Biot-…-GG-… (hANT2m))],relative affinity,[2],0.7 nM
DTWTGVEALIRILQQLLFIHFRIGCRHSRIGIIQQRRTRNGASKS (not fully specified (N-terminus)) [Tox0 (Biotin-Vpr52-96)],Kd,[3],0.15 nM
